Read-outs that look alike come from different tables or passages of the source.
Columns and labels:
[1] = biological target: CDK9/Cyclin K (Homo sapiens, UniProt P50750); assay: NanoBRET live-cell target engagement, NanoLuc-CDK9/Cyclin K in HEK-293; type: binding; details: CDK9/K
[2] = biological target: CDK5/CDK5R1 (Homo sapiens, UniProt Q00535); assay: NanoBRET live-cell target engagement, CDK5-NanoLuc/CDK5R1 in HEK-293; type: binding
[3] = biological target: CDK1/Cyclin E1 (Homo sapiens, UniProt P06493); assay: NanoBRET live-cell target engagement, CDK1-NanoLuc/Cyclin E1 in HEK-293; type: binding
[4] = biological target: CDK11B/Cyclin L2 (Homo sapiens, UniProt P21127); assay: NanoBRET live-cell target engagement, CDK11B-NanoLuc/Cyclin L2 in HEK-293; type: binding; details: CDK11b/L2; for IC50: read-out: IC50
[5] = biological target: CDK14/Cyclin Y (Homo sapiens, UniProt O94921); assay: NanoBRET live-cell target engagement, CDK14-NanoLuc/Cyclin Y in HEK-293; type: binding; details: CDK14/Y
[6] = biological target: CDK6/Cyclin D1 (Homo sapiens, UniProt Q00534); assay: NanoBRET live-cell target engagement, NanoLuc-CDK6/Cyclin D1 in HEK-293; type: binding; details: CDK6/D1; for IC50: read-out: IC50
[7] = biological target: CDK20/Cyclin H (Homo sapiens, UniProt Q8IZL9); assay: NanoBRET live-cell target engagement, NanoLuc-CDK20/Cyclin H in HEK-293; type: binding; details: CDK20/H
[8] = biological target: CDK2/Cyclin E1 (Homo sapiens, UniProt P24941); assay: NanoBRET live-cell target engagement, CDK2-NanoLuc/Cyclin E1 in HEK-293; type: binding
[9] = biological target: CDK16/Cyclin Y (Homo sapiens, UniProt Q00536); assay: NanoBRET live-cell target engagement, CDK16-NanoLuc/Cyclin Y in HEK-293; type: binding; details: CDK16/Y; for IC50: read-out: IC50
[10] = biological target: CDK17/Cyclin Y (Homo sapiens, UniProt Q00537); assay: NanoBRET live-cell target engagement, CDK17-NanoLuc/Cyclin Y in HEK-293; type: binding; details: CDK17/Y; for IC50: read-out: IC50
[11] = biological target: CDK15/Cyclin Y (Homo sapiens, UniProt Q96Q40); assay: NanoBRET live-cell target engagement, NanoLuc-CDK15/Cyclin Y in HEK-293; type: binding
[12] = biological target: CDK4/Cyclin D1 (Homo sapiens, UniProt P11802); assay: NanoBRET live-cell target engagement, NanoLuc-CDK4/Cyclin D1 in HEK-293; type: binding; details: CDK4/D1; for IC50: read-out: IC50
[13] = biological target: CDK8/Cyclin C (Homo sapiens, UniProt P49336); assay: NanoBRET live-cell target engagement, NanoLuc-CDK8/Cyclin C in HEK-293; type: binding; details: CDK8/C
[14] = biological target: CDK13/Cyclin K (Homo sapiens, UniProt Q14004); assay: NanoBRET live-cell target engagement, CDK13-NanoLuc/Cyclin K in HEK-293; type: binding; details: CDK13/K
[15] = biological target: CDK7 (Homo sapiens, UniProt P50613); assay: NanoBRET live-cell target engagement, NanoLuc-CDK7 in HEK-293; type: binding; details: CDK7; for IC50: read-out: IC50
[16] = biological target: T1, CDK11A/Cyclin L2 (Homo sapiens, UniProt Q9UQ88); assay: NanoBRET live-cell target engagement, CDK11A-NanoLuc/Cyclin L2 in HEK-293; type: binding; details: CDK11a/L2
T1 sequence (Q9UQ88 1-783): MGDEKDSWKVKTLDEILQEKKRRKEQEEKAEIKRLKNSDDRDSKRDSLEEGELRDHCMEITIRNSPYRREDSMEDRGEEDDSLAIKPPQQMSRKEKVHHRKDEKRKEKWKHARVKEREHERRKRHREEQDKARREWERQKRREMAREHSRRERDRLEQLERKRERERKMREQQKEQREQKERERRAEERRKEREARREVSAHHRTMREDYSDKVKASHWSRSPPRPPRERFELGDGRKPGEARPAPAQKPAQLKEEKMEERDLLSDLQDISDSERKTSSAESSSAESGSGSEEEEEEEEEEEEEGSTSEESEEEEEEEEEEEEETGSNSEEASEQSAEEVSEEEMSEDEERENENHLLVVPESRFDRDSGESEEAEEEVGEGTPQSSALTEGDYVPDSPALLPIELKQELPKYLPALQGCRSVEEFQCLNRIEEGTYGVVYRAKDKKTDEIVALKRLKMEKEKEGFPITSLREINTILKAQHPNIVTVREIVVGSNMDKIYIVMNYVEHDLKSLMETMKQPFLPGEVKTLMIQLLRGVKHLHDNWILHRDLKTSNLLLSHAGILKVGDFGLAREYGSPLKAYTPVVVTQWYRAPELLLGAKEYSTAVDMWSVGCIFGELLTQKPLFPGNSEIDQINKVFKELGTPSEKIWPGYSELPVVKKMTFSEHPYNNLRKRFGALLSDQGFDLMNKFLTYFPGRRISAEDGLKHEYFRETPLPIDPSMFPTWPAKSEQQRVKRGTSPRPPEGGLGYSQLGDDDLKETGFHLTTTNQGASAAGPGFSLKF

[17] = biological target: CDK18/Cyclin Y (Homo sapiens, UniProt Q07002); assay: NanoBRET live-cell target engagement, CDK18-NanoLuc/Cyclin Y in HEK-293; type: binding; details: CDK18/Y; for IC50: read-out: IC50
[18] = biological target: CDK19/Cyclin C (Homo sapiens, UniProt Q9BWU1); assay: NanoBRET live-cell target engagement, NanoLuc-CDK19/Cyclin C in HEK-293; details: CDK19/C
[19] = biological target: CDK10/Cyclin L2 (Homo sapiens, UniProt Q15131); assay: NanoBRET live-cell target engagement, CDK10-NanoLuc/Cyclin L2 in HEK-293; details: CDK10/L2
Sequence of CDK10/Cyclin L2 (Q15131 whole entry): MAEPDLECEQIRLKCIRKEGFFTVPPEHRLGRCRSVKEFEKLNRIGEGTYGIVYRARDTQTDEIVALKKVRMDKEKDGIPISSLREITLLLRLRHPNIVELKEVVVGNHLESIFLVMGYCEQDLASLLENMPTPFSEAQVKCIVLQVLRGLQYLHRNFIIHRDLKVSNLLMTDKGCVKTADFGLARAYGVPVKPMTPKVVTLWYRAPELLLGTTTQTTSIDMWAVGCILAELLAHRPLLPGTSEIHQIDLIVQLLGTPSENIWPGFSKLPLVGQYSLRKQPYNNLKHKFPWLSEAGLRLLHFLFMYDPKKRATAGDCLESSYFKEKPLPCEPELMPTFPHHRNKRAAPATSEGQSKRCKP

Sequence of CDK17/Cyclin Y (Q00537 whole entry): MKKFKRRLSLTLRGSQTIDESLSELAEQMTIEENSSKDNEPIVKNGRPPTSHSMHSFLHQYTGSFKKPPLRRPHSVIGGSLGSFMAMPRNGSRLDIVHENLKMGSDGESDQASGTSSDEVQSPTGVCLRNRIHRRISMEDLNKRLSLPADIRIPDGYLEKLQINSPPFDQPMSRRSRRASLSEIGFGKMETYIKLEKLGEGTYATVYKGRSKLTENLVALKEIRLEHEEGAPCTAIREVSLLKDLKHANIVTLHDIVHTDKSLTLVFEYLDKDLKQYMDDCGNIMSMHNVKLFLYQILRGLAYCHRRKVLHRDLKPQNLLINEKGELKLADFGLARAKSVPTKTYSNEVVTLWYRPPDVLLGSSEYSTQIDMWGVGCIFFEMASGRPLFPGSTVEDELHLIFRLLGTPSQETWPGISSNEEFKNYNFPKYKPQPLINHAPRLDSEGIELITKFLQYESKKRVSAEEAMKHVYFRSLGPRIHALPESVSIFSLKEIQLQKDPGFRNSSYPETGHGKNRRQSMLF
Sequence of CDK17/Cyclin Y (Q8ND76 whole entry partner): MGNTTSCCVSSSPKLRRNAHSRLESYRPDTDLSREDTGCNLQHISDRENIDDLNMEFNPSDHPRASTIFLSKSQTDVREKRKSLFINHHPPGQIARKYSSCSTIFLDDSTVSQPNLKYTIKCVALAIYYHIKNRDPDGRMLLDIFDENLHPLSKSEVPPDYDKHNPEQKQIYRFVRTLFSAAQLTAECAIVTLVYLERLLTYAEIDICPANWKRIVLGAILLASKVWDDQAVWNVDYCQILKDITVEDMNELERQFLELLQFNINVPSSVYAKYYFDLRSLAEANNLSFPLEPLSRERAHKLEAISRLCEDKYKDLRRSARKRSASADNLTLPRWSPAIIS
Sequence of CDK15/Cyclin Y (Q96Q40 whole entry): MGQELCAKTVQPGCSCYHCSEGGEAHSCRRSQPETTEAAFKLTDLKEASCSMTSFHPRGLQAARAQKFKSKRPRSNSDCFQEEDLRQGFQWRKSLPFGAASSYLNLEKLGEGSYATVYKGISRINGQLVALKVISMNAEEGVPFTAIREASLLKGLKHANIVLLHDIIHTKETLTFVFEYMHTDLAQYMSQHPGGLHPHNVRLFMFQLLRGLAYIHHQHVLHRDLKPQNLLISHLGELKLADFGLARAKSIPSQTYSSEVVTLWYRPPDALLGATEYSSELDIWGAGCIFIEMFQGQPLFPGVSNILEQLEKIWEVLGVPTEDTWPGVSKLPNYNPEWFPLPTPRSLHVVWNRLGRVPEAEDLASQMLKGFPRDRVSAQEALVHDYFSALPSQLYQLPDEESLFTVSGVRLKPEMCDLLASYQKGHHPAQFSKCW
Sequence of CDK15/Cyclin Y (Q8ND76 whole entry partner): as the sequence (Q8ND76 whole entry partner) above
Sequence of CDK9/Cyclin K (P50750 whole entry): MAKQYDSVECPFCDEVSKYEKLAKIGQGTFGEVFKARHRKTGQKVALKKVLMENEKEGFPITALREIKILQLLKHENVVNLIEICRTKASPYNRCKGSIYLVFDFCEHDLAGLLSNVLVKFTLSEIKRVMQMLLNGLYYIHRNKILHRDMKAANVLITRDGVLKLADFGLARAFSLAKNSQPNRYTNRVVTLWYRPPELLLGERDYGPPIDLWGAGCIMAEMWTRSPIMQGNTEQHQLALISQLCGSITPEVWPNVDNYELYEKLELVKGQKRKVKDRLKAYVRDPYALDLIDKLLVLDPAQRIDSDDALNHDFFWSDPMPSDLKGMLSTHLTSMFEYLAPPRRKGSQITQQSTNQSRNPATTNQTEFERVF
Sequence of CDK9/Cyclin K (O75909 whole entry partner): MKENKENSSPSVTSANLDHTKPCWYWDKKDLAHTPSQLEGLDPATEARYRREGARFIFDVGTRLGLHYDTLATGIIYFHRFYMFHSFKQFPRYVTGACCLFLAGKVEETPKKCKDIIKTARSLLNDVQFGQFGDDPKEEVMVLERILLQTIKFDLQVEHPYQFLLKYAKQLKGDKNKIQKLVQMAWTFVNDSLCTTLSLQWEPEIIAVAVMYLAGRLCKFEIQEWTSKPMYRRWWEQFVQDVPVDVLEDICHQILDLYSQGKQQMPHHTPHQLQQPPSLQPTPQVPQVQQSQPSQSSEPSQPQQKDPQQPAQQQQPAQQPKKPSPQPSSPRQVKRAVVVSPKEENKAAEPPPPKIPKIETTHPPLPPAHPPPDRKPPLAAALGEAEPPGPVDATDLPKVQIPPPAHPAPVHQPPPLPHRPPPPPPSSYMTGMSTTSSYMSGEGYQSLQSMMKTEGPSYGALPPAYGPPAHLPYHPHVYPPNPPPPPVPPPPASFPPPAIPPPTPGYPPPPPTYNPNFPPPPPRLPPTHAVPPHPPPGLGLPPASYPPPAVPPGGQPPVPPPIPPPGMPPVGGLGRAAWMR
Sequence of CDK19/Cyclin C (Q9BWU1 whole entry): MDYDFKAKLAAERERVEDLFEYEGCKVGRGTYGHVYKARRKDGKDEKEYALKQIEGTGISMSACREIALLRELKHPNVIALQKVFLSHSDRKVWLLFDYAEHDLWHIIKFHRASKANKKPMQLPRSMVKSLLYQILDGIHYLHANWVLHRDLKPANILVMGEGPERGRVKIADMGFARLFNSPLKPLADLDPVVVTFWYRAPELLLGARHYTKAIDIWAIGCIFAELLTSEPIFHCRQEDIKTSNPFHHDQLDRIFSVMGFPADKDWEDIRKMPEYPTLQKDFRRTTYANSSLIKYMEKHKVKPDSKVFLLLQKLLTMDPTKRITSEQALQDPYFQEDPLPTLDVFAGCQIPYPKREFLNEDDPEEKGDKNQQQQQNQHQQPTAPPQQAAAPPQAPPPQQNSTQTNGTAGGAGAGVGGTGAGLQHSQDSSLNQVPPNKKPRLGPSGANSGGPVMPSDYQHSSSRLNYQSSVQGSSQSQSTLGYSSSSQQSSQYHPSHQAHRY
Sequence of CDK19/Cyclin C (P24863 whole entry partner): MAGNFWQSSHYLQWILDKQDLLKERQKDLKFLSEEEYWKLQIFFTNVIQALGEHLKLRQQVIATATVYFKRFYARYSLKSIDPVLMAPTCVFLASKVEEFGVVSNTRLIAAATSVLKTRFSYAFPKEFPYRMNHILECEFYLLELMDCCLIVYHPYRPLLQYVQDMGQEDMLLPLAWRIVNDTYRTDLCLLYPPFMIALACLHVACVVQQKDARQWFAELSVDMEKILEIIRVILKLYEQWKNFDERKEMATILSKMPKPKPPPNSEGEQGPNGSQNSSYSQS
Sequence of CDK4/Cyclin D1 (P11802 whole entry): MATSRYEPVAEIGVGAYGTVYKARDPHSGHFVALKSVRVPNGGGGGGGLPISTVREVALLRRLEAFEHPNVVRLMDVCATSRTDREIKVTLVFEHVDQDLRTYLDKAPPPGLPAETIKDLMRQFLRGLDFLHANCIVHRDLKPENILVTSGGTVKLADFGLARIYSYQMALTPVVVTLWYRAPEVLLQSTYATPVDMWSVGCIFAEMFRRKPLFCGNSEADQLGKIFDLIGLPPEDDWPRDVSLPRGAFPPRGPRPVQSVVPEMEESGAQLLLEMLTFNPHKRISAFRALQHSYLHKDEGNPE
Sequence of CDK4/Cyclin D1 (P24385 whole entry partner): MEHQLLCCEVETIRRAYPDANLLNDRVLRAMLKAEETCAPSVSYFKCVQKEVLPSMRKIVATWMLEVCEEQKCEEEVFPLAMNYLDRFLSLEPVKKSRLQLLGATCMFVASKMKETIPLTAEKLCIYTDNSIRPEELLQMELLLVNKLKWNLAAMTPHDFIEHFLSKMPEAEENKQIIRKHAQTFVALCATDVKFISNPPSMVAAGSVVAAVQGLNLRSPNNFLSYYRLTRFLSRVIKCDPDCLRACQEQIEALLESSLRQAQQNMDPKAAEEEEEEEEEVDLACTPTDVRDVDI
Sequence of CDK8/Cyclin C (P49336 whole entry): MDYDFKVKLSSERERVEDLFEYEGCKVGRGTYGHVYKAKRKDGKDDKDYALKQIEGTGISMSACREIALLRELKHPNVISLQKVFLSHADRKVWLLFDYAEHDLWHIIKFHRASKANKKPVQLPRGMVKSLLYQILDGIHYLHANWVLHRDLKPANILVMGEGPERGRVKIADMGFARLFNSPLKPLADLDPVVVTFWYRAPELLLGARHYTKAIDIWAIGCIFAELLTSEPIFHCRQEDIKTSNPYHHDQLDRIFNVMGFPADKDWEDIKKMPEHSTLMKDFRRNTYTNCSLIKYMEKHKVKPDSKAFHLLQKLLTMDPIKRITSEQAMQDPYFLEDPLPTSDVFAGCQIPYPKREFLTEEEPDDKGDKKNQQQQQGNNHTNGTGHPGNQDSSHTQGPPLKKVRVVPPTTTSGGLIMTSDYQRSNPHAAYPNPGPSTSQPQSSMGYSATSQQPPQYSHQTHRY
Sequence of CDK8/Cyclin C (P24863 whole entry partner): as the sequence (P24863 whole entry partner) above
Sequence of CDK7 (P50613 whole entry): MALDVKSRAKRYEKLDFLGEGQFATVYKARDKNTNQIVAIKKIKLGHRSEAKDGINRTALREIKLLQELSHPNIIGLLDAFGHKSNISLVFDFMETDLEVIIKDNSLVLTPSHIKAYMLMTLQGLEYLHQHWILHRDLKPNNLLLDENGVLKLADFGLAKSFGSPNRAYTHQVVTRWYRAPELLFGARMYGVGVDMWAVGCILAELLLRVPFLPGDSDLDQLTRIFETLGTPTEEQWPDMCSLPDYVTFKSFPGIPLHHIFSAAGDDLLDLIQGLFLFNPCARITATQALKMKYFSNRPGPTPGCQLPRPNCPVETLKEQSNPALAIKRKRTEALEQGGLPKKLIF

## CC(C)c1cnn2c(NCc3ccccc3-n3cccn3)nc(OC3CCCNC3)nc12 (stereo not shown) [LDC4297]
[1]; average
  Inhibition at 10µM (%): 42.4%
[1]; experiment 1
  Inhibition at 10µM (%): 42.8%
[1]; experiment 2
  Inhibition at 10µM (%): 42.0%
[2]; CDK5/CDK5R1, average
  Inhibition at 10µM (%): 89.8%
[2]; CDK5/CDK5R1, average (± SEM where n=3), read-out: IC50
  IC50: 280 ± 50 nM
[2]; CDK5/CDK5R1, experiment 1
  Inhibition at 10µM (%): 86.3%
[2]; CDK5/CDK5R1, experiment 1, read-out: IC50
  IC50: 204 nM
[2]; CDK5/CDK5R1, experiment 2
  Inhibition at 10µM (%): 93.4%
[2]; CDK5/CDK5R1, experiment 2, read-out: IC50
  IC50: 280 nM
[2]; CDK5/CDK5R1, experiment 3, read-out: IC50
  IC50: 360 nM
[2]; live HEK-293, 2 h, mean ± S.E.M. (n=3) or mean (n=2), read-out: IC50 for CDK/cyclin complexes, CDK5/R1
  IC50: 280 ± 50 nM
[3]; CDK1/E1, average
  Inhibition at 10µM (%): 72.7%
[3]; CDK1/E1, average (± SEM where n=3), read-out: IC50
  IC50: 70 ± 20 nM
[3]; CDK1/E1, experiment 1
  Inhibition at 10µM (%): 70.9%
[3]; CDK1/E1, experiment 1, read-out: IC50
  IC50: 70 nM
[3]; CDK1/E1, experiment 2
  Inhibition at 10µM (%): 74.5%
[3]; CDK1/E1, experiment 2, read-out: IC50
  IC50: 110 nM
[3]; CDK1/E1, experiment 3, read-out: IC50
  IC50: 43 nM
[3]; live HEK-293, 2 h, mean ± S.E.M. (n=3) or mean (n=2), read-out: IC50 for CDK/cyclin complexes, CDK1/E1
  IC50: 70 ± 20 nM
[4]; average
  Inhibition at 10µM (%): 53.6%
[4]; average (± SEM where n=3)
  IC50: 760 ± 60 nM
[4]; experiment 1
  Inhibition at 10µM (%): 54.6%
  IC50: 876 nM
[4]; experiment 2
  Inhibition at 10µM (%): 52.6%
  IC50: 685 nM
[4]; experiment 3
  IC50: 732 nM
[5]; average
  Inhibition at 10µM (%): 89.0%
[5]; experiment 1
  Inhibition at 10µM (%): 88.6%
[5]; experiment 2
  Inhibition at 10µM (%): 89.3%
[6]; average
  Inhibition at 10µM (%): 27.5%
[6]; average (± SEM where n=3)
  IC50: 110 ± 80 nM
[6]; experiment 1
  Inhibition at 10µM (%): 31.4%
  IC50: 9 nM
[6]; experiment 2
  Inhibition at 10µM (%): 23.6%
  IC50: 270 nM
[6]; experiment 3
  IC50: 50 nM
[7]; experiment 1
  Inhibition at 10µM (%): 53.8%
[7]; experiment 2
  Inhibition at 10µM (%): 57.6%
[8]; CDK2/E1, average
  Inhibition at 10µM (%): 88.3%
[8]; CDK2/E1, average (± SEM where n=3), read-out: IC50
  IC50: 85 ± 2 nM
[8]; CDK2/E1, experiment 1
  Inhibition at 10µM (%): 85.3%
[8]; CDK2/E1, experiment 1, read-out: IC50
  IC50: 81 nM
[8]; CDK2/E1, experiment 2
  Inhibition at 10µM (%): 91.3%
[8]; CDK2/E1, experiment 2, read-out: IC50
  IC50: 86 nM
[8]; CDK2/E1, experiment 3, read-out: IC50
  IC50: 85 nM
[8]; live HEK-293, 2 h, mean ± S.E.M. (n=3) or mean (n=2), read-out: IC50 for CDK/cyclin complexes, CDK2/E1
  IC50: 85 ± 2 nM
[9]; average (± SEM where n=3)
  IC50: 400 ± 30 nM
[9]; experiment 1
  Inhibition at 10µM (%): 87.3%
  IC50: 332 nM
[9]; experiment 2
  Inhibition at 10µM (%): 88.6%
  IC50: 430 nM
[9]; experiment 3
  IC50: 428 nM
[10]; average
  Inhibition at 10µM (%): 90.8%
[10]; average (± SEM where n=3)
  IC50: 200 ± 20 nM
[10]; experiment 1
  Inhibition at 10µM (%): 89.8%
  IC50: 194 nM
[10]; experiment 2
  Inhibition at 10µM (%): 91.8%
  IC50: 170 nM
[10]; experiment 3
  IC50: 242 nM
[11]; CDK15/Y, average
  Inhibition at 10µM (%): 95.3%
[11]; CDK15/Y, average (± SEM where n=3), read-out: IC50
  IC50: 220 ± 20 nM
[11]; CDK15/Y, experiment 1
  Inhibition at 10µM (%): 95.2%
[11]; CDK15/Y, experiment 1, read-out: IC50
  IC50: 220 nM
[11]; CDK15/Y, experiment 2
  Inhibition at 10µM (%): 95.3%
[11]; CDK15/Y, experiment 2, read-out: IC50
  IC50: 260 nM
[11]; CDK15/Y, experiment 3, read-out: IC50
  IC50: 193 nM
[11]; live HEK-293, 2 h, mean ± S.E.M. (n=3) or mean (n=2), read-out: IC50 for CDK/cyclin complexes, CDK15/Y
  IC50: 220 ± 20 nM
[12]; average
  Inhibition at 10µM (%): 58.1%
[12]; average (± SEM where n=3)
  IC50: 80 ± 30 nM
[12]; experiment 1
  Inhibition at 10µM (%): 52.3%
  IC50: 20 nM
[12]; experiment 2
  Inhibition at 10µM (%): 64.0%
  IC50: 100 nM
[12]; experiment 3
  IC50: 104 nM
[13]; average
  Inhibition at 10µM (%): 3.8%
[13]; experiment 1
  Inhibition at 10µM (%): 14.8%
[13]; experiment 2
  Inhibition at 10µM (%): -7.1%
[14]; average
  Inhibition at 10µM (%): 24.9%
[14]; experiment 1
  Inhibition at 10µM (%): 20.0%
[14]; experiment 2
  Inhibition at 10µM (%): 29.8%
[15]; average
  Inhibition at 10µM (%): 93.9%
[15]; average (± SEM where n=3)
  IC50: 22 ± 6 nM
[15]; experiment 1
  Inhibition at 10µM (%): 93.7%
  IC50: 17 nM
[15]; experiment 2
  Inhibition at 10µM (%): 94.2%
  IC50: 15 nM
[15]; experiment 3
  IC50: 33 nM
[16]; average
  Inhibition at 10µM (%): 56.5%
[16]; experiment 1
  Inhibition at 10µM (%): 51.7%
[16]; experiment 2
  Inhibition at 10µM (%): 61.3%
[17]; average
  Inhibition at 10µM (%): 97.4%
[17]; average (± SEM where n=3)
  IC50: 230 ± 30 nM
[17]; experiment 1
  Inhibition at 10µM (%): 93.4%
  IC50: 177 nM
[17]; experiment 2
  Inhibition at 10µM (%): 101.4%
  IC50: 260 nM
[17]; experiment 3
  IC50: 262 nM
[18]; average
  Inhibition at 10µM (%): 18.1%
[18]; experiment 1
  Inhibition at 10µM (%): 45.9%
[18]; experiment 2
  Inhibition at 10µM (%): -9.6%
[19]; average
  Inhibition at 10µM (%): 29.7%
[19]; experiment 1
  Inhibition at 10µM (%): 25.4%
[19]; experiment 2
  Inhibition at 10µM (%): 34.0%

From paper PMC7265341, “Quantifying CDK inhibitor selectivity in live cells” (Nature Communications, 2020)
